Source: patent publication US4305872A, “Polypeptide derivatives” (priority 1979, dated 1981)

Assays:
[1] = test system: guinea pig ileum (opiate receptor site); experiment: Guinea pig ileum (GPI) assay for enkephalin activity, electrically stimulated contractions; conditions: specificity controls; FIGS. 6-9
[2] = test system: Serum TSH level; experiment: 6 Point Parallel Line Assay, serum TSH level after inhibitor then TRH; format: in vivo; conditions: no inhibitor (saline injected)
Description: (§1) 6 Point Parallel Line Assay Design:
(§2) 3 sample, 3 standard samples
(§3) Responses expressed in (Ng/ml)
(§4) Animals challenged with peptide derivative dissolved in 0.85% NaCl.
(§5) Total Injection Volume: 0.25 ml
(§6) Anatomical Site of Injection: Jugular vein
(§7) Samples obtained by subjecting animal to ether anesthesia, and sacrificing animal.
(§8) Each animal was injected via jugular vein 0.25 ml of peptide derivative: to insure sample was injected into vein, the syringe plunger was gently retracted, if blood could be withdrawn, then the sample was injected. Following injection, the syringe was rinsed with blood and injected. 1/2-hour following injection of the peptide derivative, using the same procedure, a TRH dose-response curve was made using the same injection technique.
(§9) 0 time--injection of TRH derivative (80 ugm)
(§10) 1/2 hr.--injection of TRH (4, 40, and 80 ugm)
(§11) 1 hrs.--blood sample collected

[3] = test system: Serum Prolactin Level; experiment: 6 Point Parallel Line Assay, serum prolactin level after inhibitor then TRH; format: in vivo; conditions: no inhibitor (saline injected)
Description: as §1, §2, §3, §4, §5, §6, §7, §8, §9, §10, §11

[4] = test system: TRH-Induced Release of Radioactive (125I) Iodide from the Thyroid; experiment: McKenzie Bioassay for TRH-Induced Release of Radioactive (125I) Iodide from the Thyroid; format: in vivo, Long-Evans male rats; conditions: worked Example; for (I-125) cpm/200 ul blood at THR: tail vein; for Δ cpm: net of saline control
Description: 16 Long-Evans male rats were maintained on an iodine deficient diet for 1 week. Each rat was then injected intraperitoneally (i.p.) with 20 μCi of radioactive (Na^125 I). Six hours before injection of the material to be tested, the animals were given 0.03% propylthioluracil (PTU) in their drinking water. This prevents the re-uptake of released ^125 I (iodoproteins such as mono- and diodo-tyrosines, T3 or T4) once they are released from the thyroid under the influence of TRH or TRH analogue. 24 hrs. after administration of the radioactive iodine (0.2 ml) 200 μl of blood was withdrawn from the tail vein of each rat, transferred quantitatively into a 12×75 mm test tube containing 1 ml of 0.9% saline and the ^125 I content counted by use of a Beckmann γ-ray spectrometer. One ml of TRH or TRH analogue dissolved in 0.9% NaCl (physiologic saline) was injected into the tail vein of each of four rats per dose considered (e.g. 0.4 μgm, 40 μgm, 80 μgm). 1 ml of 0.9% NaCl (physiologic saline) was injected also to each of four rats to serve as a control for stress-related influence (trauma from blood collecting procedure and anesthesia) on release of ^125 I from the thyroid gland. Once the saline control or designated dose of TRH or TRH analogue has been injected, blood samples (0.2 ml) are collected from the tail vein of each rat at 30 minutes, 1 hr, 2 hrs, and 3 hrs. and the ^125 I content evaluated as described above. Upon completion of the experiment, animals are kept for a 24 hr time period to observe any adverse toxicological effects. If they maintain their usual behavior (vital signs), it is assumed the compounds tested cause no overt physiological effects.
An increase in I-125 content above the basal level, as exemplified by the saline control, indicates a TRH induced release of TSH (thyrotropin stimulating hormone) which in turn causes release of I-125 from the thyroid. This type of response means the […] hormone physiologic mechanism (hypothalamo-pituitary-thyroid axis) is working properly, and the animals are suitable for testing. […] For each dose level considered, the radio-activity content of I-125 (cpm) per 200 μl of blood is evaluated at each time period and subtracted from the saline control radioactivity (I-125) content to obtain the Δ cpm released from thyroid. The net cpm released is therefore evaluated, rather than the absolute radio-activity for each time period and dose level.
To evaluate the effect of TRH analogues (TRH-CMK or TRH-DMK) on the TRH-TSH release of I-125 from the thyroid, each animal of a test group (4 animals) was injected with 1 ml of a given dose of the TRH analogue into the tail vein. […] Blood samples (0.2 ml) were then collected at various times (e.g. 1/2, 1 hr, 2 hrs, etc.) and evaluated for their I-125 content. […]

Compound	whether it effects a response on the GPI (neither = no response) [1]	Serum TSH level ([2]; FIRST EXPERIMENT, TRH 4 μg)	Serum TSH level ([2]; FIRST EXPERIMENT, TRH 40 μg)	Serum TSH level ([2]; FIRST EXPERIMENT, TRH 80 μg)	Serum TSH level ([2]; SECOND EXPERIMENT, TRH 4 μg)	Serum TSH level ([2]; SECOND EXPERIMENT, TRH 40 μg)	Serum TSH level ([2]; SECOND EXPERIMENT, TRH 80 μg)	Serum Prolactin Level ([3]; FIRST EXPERIMENT, TRH 4 μg)	Serum Prolactin Level ([3]; FIRST EXPERIMENT, TRH 40 μg)	Serum Prolactin Level ([3]; FIRST EXPERIMENT, TRH 80 μg)	Serum Prolactin Level ([3]; SECOND EXPERIMENT, TRH 4 μg)	Serum Prolactin Level ([3]; SECOND EXPERIMENT, TRH 40 μg)	Serum Prolactin Level ([3]; SECOND EXPERIMENT, TRH 80 μg)	(I-125) cpm/200 ul blood at THR ([4]; 0.4 μgm TRH)	Δ cpm ([4]; 0.4 μgm TRH)	(I-125) cpm/200 ul blood at THR ([4]; 4 μgm TRH)	Δ cpm ([4]; 4 μgm TRH)
N-tosyl-phenylalanine chloromethyl ketone	neither																
NC(=O)[C@@H]1CCCN1C(=O)[C@H](Cc1c[nH]cn1)NC(=O)[C@@H]1CCC(=O)N1 [TRH, L-pyroglutamyl-L-histidyl-L-prolinamide]		312 ng/mL	412 ng/mL	1139 ng/mL	167 ng/mL	612 ng/mL	839 ng/mL	61 ng/mL	76 ng/mL	216 ng/mL	46 ng/mL	150 ng/mL	181 ng/mL	261 cpm/200 ul	+141 cpm	358 cpm/200 ul	+238 cpm
